Common to all, as to format: in vivo
Test [1] deals with “Momotaro” tomato. Description: Example 2 temperature stress tolerance imparting test (tomato). The following applies: leaf, 2 weeks. The method, then: Other cultivation conditions were the same as the conditions of the temperature stress test. […] (2) Solution culture medium: […] Method of Temperature Stress Tolerance Imparting Test The temperature in a climatic chamber was controlled so as to be 10, 15, or 32° C. The environmental conditions were controlled so as to have an illuminance by a fluorescent light of 5000 Lux and a daily light-dark cycle of a 16-hour light period and a 8-hour dark period. In this test, a temperature of 23° C. at which the optimum growth was observed was regarded as a reference temperature (temperature stress-free test condition), and a stress was imposed by applying a temperature higher or lower than the reference temperature. A tomato as prepared above was planted in a 250 ml polyethylene bottle filled with the solution culture medium (½ Otsuka A formulation). A treatment solution as presented in Table 1 was sprayed onto the leaves or applied to the underground portion. […] Ten specimens were prepared for each of the test plot and the control plots, and a plant stress level and an extent of imparting plant stress tolerance were calculated according to Formula (ii) and (iii) above using as a fresh plant body weight the average of the fresh plant body weights of each specimen 2 weeks after the beginning of the test.

Test [2] relates to “Momotaro” tomato. The experiment in a line: Example 4 salt stress tolerance imparting test (tomato, tap water + NaCl). Conditions: tap water + NaCl 3510 ppm, leaf, 2 weeks. From the text:
NaCl concentration 3510 ppm (water potential by NaCl: […]) (4) Cultivation period: two weeks (5) Plant preparation: A 50-cell tray was filled with Kureha gardening soil manufactured by Kureha Corporation (fertilizer components: N:P:K=0.4:1.9:0.6 g/kg soil), and seeds of a “Momotaro” tomato were sowed, thinly covered with Kureha gardening soil, and sufficiently irrigated to allow the seeds to sprout. When the leaves in the 2-leaf stage fully unfolded, the soil on the tomato roots was carefully washed away with running water, and a test was performed. (6) The chemicals used and the concentration of a treatment solution were as in Example 1 (7) Amount of application: 10 ml/specimen for leaf spraying, 50 ml/specimen for fertigation Method of Salt Stress Tolerance Imparting Test […]

Test [3] relates to “Momotaro” tomato. Description: Standard test: standard extent of imparting plant salt stress tolerance. Conditions: 100 ppm sprayed onto leaves 10 ml/specimen, NaCl 3510 ppm in tap water, fresh weight after 2 weeks vs salt-stressed untreated control plot 1. The method, then: Standard Test (I) Plant Preparation A 50-cell tray is filled with potting soil (fertilizer components: N:P:K=0.4:1.9:0.6 (g)/kg potting soil); and seeds of a “Momotaro” tomato (Takii Co., Ltd.) are sowed, thinly covered with potting soil, and sufficiently irrigated to allow the seeds to sprout. When the leaves in the 2-leaf stage are fully unfolded, the soil on the tomato roots is washed away with running water, and a test is performed. For the potting soil, Kureha gardening soil manufactured by Kureha Corporation may be used. (II) Test Condition Setting The environmental conditions are controlled such that the temperature is 23° C., the relative humidity is 50%, the illuminance is 5000 Lux, and the daily light-dark cycle includes a 16-hour light period and an 8-hour dark period. Such environmental conditions can be obtained by, for example, controlling the temperature in a room or a climate chamber where the temperature and the relative humidity can be controlled, and controlling illuminance by a fluorescent light or the like. […] (III) Treatment with Plant Stress Tolerance Imparting Composition […] A known surfactant or a like material that barely affects the plant may be used in the preparation of an aqueous dispersion. Test plot: An aqueous solution or an aqueous dispersion of a test compound (sugar derivative-type surfactant) (concentration: 100 ppm) is sprayed onto the leaves in an amount of 10 ml per tomato specimen. […] NaCl is added to a solution culture medium (creating a salt stress), but no test compound (plant stress tolerance imparting composition) is given to the tomato. Control plot 2: No NaCl is added to a solution culture medium (creating no salt stress), and no test compound (plant stress tolerance imparting composition) is given to the tomato. (IV) Calculation of Standard Extent of Imparting Plant Salt Stress Tolerance (%) […] The plant stress level (standard plant salt stress level) attained in the above-described standard test is about 130%. In this regard, the standard plant salt stress level can be calculated according to Formula (ii)′ below.

The subject of test [4] is Potato Variety: Toyoshiro. Description: Example 5 drying stress tolerance imparting test (potato variety Toyoshiro). The following applies: 3 weeks. The method, then: Other cultivation conditions were the same as the conditions of the drying stress test. Drying stress conditions: soil pF value: 2.3, 2.5, or 2.9, cultivation temperature: 23° C., relative humidity: 50%, illuminance: 5000 Lux (fluorescent light), light/dark cycle: 16 hours/8 hours (2) Cultivation Period: 3 weeks (3) Soil: Kureha gardening soil manufactured by Kureha Corporation (fertilizer components: N:P:K=0.4:1.9:0.6 g/kg soil) (4) The chemicals used and the amount of a treatment solution applied were the same as in Example 3. Method of Drying Stress Tolerance Imparting Test A planter (60 cm) was filled with Kureha gardening soil manufactured by Kureha Corporation (fertilizer components: N:P:K=0.4:1.9:0.6 g/kg soil) in a glass greenhouse, tubers of a “Thyoshiro” potato were cut in half: and 5 pieces thereof were planted in the planter, thinly covered with Kureha gardening soil, and sufficiently watered to allow the tubers to sprout. When the leaves in the 3-leaf stage fully unfolded, the Solarium tuberosu was relocated on a plant culture rack in an air-conditioned room, and a test was initiated. […] From immediately after the beginning of the test, a treatment solution of Table 1 was sprayed onto the leaves or applied to the underground portions once a week. […] Five specimens (per planter) were prepared for each of the test plot and the control plots, plant bodies were collected 3 weeks after the beginning of the test such that the roots were not cut, the soil was washed away with running water, the fresh plant body weights were measured, and a plant stress level and an extent of imparting plant stress tolerance were calculated according to Formula (ii) and (iii) above using the average of the weights.

[5] abbreviates: pF 2.3, leaf, 100 ppm once a week.

Regarding `O=C(O)[C@@H]1CCCN1` [Comparative product 2, Proline, reference compound], the “Extent of imparting plant stress tolerance” value came out at 102% in the test with “Momotaro” tomato [1] (10° C., 100 ppm); 102% in the test on “Momotaro” tomato [1] (15° C., 100 ppm); 102% with “Momotaro” tomato [1] (32° C., 100 ppm); 103% in the test with “Momotaro” tomato [2] (100 ppm); 102% in test [4] (setting [5]); 103% in test [4] (pF 2.5, leaf, 100 ppm once a week). For the same compound, the “Extent of imparting plant stress tolerance” value in test [4] (pF 2.9, leaf, 100 ppm once a week) is 103%. For the same compound, the “Standard extent of imparting plant salt stress tolerance” value (“Standard extent” for short) with “Momotaro” tomato [3] was determined as 102%.
As to `C[N+](C)(C)CC(=O)[O-]` [Comparative product 3, Glycine betaine, reference compound], the “Extent of imparting plant stress tolerance” value in the test on “Momotaro” tomato [1] (32° C., 100 ppm) stood at 102%; in the test on “Momotaro” tomato [2] (100 ppm), 103%; in test [4] (setting [5]) it was 102%. The “Standard extent” value in the test on “Momotaro” tomato [3] amounted to 103%.
As to “Sucrose fatty acid ester (C18, HLB = 11) [Product of present invention 19]”, the “Extent of imparting plant stress tolerance” value with “Momotaro” tomato [1] (32° C., 100 ppm) came out at 114%; in the test on “Momotaro” tomato [2] (100 ppm) it was 114%; in test [4] (setting [5]) it was 117%. Also, the “Standard extent” value in the test on “Momotaro” tomato [3] is listed as 114%.
Turning to “Alkyl (C10) polyglycoside [Product of present invention 15]”, the “Extent of imparting plant stress tolerance” value is recorded as 115% in the test with “Momotaro” tomato [1] (32° C., 100 ppm); 115% with “Momotaro” tomato [1] (32° C., 200 ppm); 116% with “Momotaro” tomato [2] (100 ppm); 113% with “Momotaro” tomato [2] (200 ppm); 119% in test [4] (setting [5]); 116% in test [4] (pF 2.3, leaf, 200 ppm once a week). Also, the “Standard extent” value in the test with “Momotaro” tomato [3] is recorded as 116%.
For the compound “Sucrose fatty acid ester (C16, HLB = 15) [Product of present invention 21]”, the “Extent of imparting plant stress tolerance” value turned out to be 116% in the test with “Momotaro” tomato [1] (32° C., 100 ppm); 117% with “Momotaro” tomato [2] (100 ppm); 118% in test [4] (setting [5]). Moreover, the “Standard extent” value in the test on “Momotaro” tomato [3] amounted to 117%.

These data come from US20110100079A1, “METHOD FOR IMPARTING STRESS TOLERANCE TO PLANT” (priority 2007, published 2011).
